Source: ChEMBL document CHEMBL3390848, “Affinity selection and sequence-activity relationships of HIV-1 membrane fusion inhibitors directed at the drug-resistant variants” (Medchemcomm, 2010)
Residues, ends and D or L forms follow the SMILES beside them.

Tests used:
[1] = tested on: Human immunodeficiency virus 1; experiment: Binding affinity to HIV1 His-tagged N-terminal heptad repeat of envelope glycoprotein gp41 assessed as recovery of N36-drug complex at 10 uM after 2 hrs by LC-MS analysis
[2] = tested on: Human immunodeficiency virus 1; experiment: Thermal stability of HIV1 envelope glycoprotein gp41 His-tagged N-terminal heptad repeat N36-drug complex assessed as thermal unfolding transition state by measuring molar ellipticity at 4 to 90 degC by circular dichroic spectra analysis
[3] = tested on: Human immunodeficiency virus 1; experiment: Binding affinity to HIV1 His-tagged N-terminal heptad repeat of envelope glycoprotein gp41 assessed as recovery of N36-drug complex at 0.6 uM after 2 hrs by LC-MS analysis
[4] = tested on: Human immunodeficiency virus 1; experiment: Binding affinity to HIV1 His-tagged N-terminal heptad repeat of envelope glycoprotein gp41 assessed as recovery of N36-drug complex at 1 uM after 2 hrs by LC-MS analysis
[5] = tested on: Human immunodeficiency virus 1; experiment: Binding affinity to HIV1 His-tagged N-terminal heptad repeat of envelope glycoprotein gp41 assessed as recovery of N36-drug complex at 6 uM after 2 hrs by LC-MS analysis
[6] = tested on: Human immunodeficiency virus 1; experiment: Antiviral activity against HIV1 NL4-3 harboring gp41 D36G mutant infected in human HeLa cells expressing CD4-LTR-beta-gal assessed as inhibition of viral replication after 48 hrs by MAGI assay; assay type: functional, organism-based

In the case of `CC[C@H](C)[C@H](NC(=O)[C@H](CCCCN)NC(=O)[C@H](CCCCN)NC(=O)[C@H](CC(=O)O)NC(=O)[C@H](Cc1c[nH]c2ccccc12)NC(=O)[C@H](CCC(=O)O)NC(=O)[C@H](CCC(=O)O)NC(=O)[C@H](Cc1c[nH]c2ccccc12)NC(C)=O)C(=O)N[C@@H](CCC(=O)O)C(=O)N[C@@H](CCC(=O)O)C(=O)N[C@@H](Cc1ccc(O)cc1)C(=O)N[C@H](C(=O)N[C@@H](CCCCN)C(=O)N[C@@H](CCCCN)C(=O)N[C@H](C(=O)N[C@@H](CCC(=O)O)C(=O)N[C@@H](CCC(=O)O)C(=O)N[C@@H](CC(C)C)C(=O)N[C@H](C(=O)N[C@@H](CCCCN)C(=O)N[C@@H](CCCCN)C(=O)N[C@H](C(=O)N[C@@H](CCC(=O)O)C(=O)N[C@@H](CCC(=O)O)C(=O)N[C@@H](CCC(N)=O)C(=O)N[C@@H](CCC(N)=O)C(=O)N[C@@H](CCCCN)C(=O)N[C@@H](CCCCN)C(=O)N[C@@H](CC(N)=O)C(=O)N[C@@H](CCC(=O)O)C(=O)N[C@@H](CCC(=O)O)C(=O)N[C@@H](CCC(=O)O)C(=O)N[C@@H](CC(C)C)C(=O)N[C@@H](CCCCN)C(=O)N[C@@H](CCCCN)C(N)=O)C(C)C)[C@@H](C)CC)[C@@H](C)CC)[C@@H](C)O` (Ac-WEEWDKKIEEYTKKIEELIKKVEEQQKKNEEELKK-NH2), the Activity [1] is reported as 2.8%, the Tm [2] is reported as 79.9 °C and the Activity [3] is reported as 7%. It also gave an Activity [4] of 12.1%, an Activity [5] of 6% and an EC50 [6] of 1.9 nM.
Compound `CC[C@H](C)[C@H](NC(=O)[C@H](CC(C)C)NC(=O)[C@H](CCC(=O)O)NC(=O)[C@H](CCC(=O)O)NC(=O)[C@@H](NC(=O)[C@H](CCCCN)NC(=O)[C@H](CCCCN)NC(=O)[C@@H](NC(=O)[C@H](Cc1ccc(O)cc1)NC(=O)[C@H](CCC(=O)O)NC(=O)[C@H](CCC(=O)O)NC(=O)[C@@H](NC(=O)[C@H](CCCCN)NC(=O)[C@H](CCCCN)NC(=O)[C@H](CC(=O)O)NC(=O)[C@H](Cc1c[nH]c2ccccc12)NC(=O)[C@H](CCC(=O)O)NC(=O)[C@H](CCC(=O)O)NC(=O)[C@H](Cc1c[nH]c2ccccc12)NC(C)=O)[C@@H](C)CC)[C@@H](C)O)[C@@H](C)CC)C(=O)N[C@@H](CCCCN)C(=O)N[C@@H](CCCCN)C(=O)N[C@@H](Cc1cnc[nH]1)C(=O)N[C@@H](CCC(=O)O)C(=O)N[C@@H](CCC(=O)O)C(=O)N[C@@H](CCC(N)=O)C(=O)N[C@@H](CCC(N)=O)C(=O)N[C@@H](CCCCN)C(=O)N[C@@H](CCCCN)C(=O)N[C@@H](CC(N)=O)C(=O)N[C@@H](CCC(=O)O)C(=O)N[C@@H](CCC(=O)O)C(=O)N[C@@H](CCC(=O)O)C(=O)N[C@@H](CC(C)C)C(=O)N[C@@H](CCCCN)C(=O)N[C@@H](CCCCN)C(N)=O` (Ac-WEEWDKKIEEYTKKIEELIKKHEEQQKKNEEELKK-NH2) has an Activity [1] of 0.9%, a Tm [2] of 62.9 °C and an Activity [3] of 5.7%. It also gave an Activity [4] of 2.4%, an Activity [5] of 0.6% and an EC50 [6] of 1.9 nM.
In the case of `CC[C@H](C)[C@H](NC(=O)[C@H](CC(C)C)NC(=O)[C@H](CCC(=O)O)NC(=O)[C@H](CCC(=O)O)NC(=O)[C@@H](NC(=O)[C@H](CCCCN)NC(=O)[C@H](CCCCN)NC(=O)[C@@H](NC(=O)[C@H](Cc1ccc(O)cc1)NC(=O)[C@H](CCC(=O)O)NC(=O)[C@H](CCC(=O)O)NC(=O)[C@@H](NC(=O)[C@H](CCCCN)NC(=O)[C@H](CCCCN)NC(=O)[C@H](CC(=O)O)NC(=O)[C@H](Cc1c[nH]c2ccccc12)NC(=O)[C@H](CCC(=O)O)NC(=O)[C@H](CCC(=O)O)NC(=O)[C@H](Cc1c[nH]c2ccccc12)NC(C)=O)[C@@H](C)CC)[C@@H](C)O)[C@@H](C)CC)C(=O)N[C@@H](CCCCN)C(=O)N[C@@H](CCCCN)C(=O)N[C@@H](Cc1ccc(O)cc1)C(=O)N[C@@H](CCC(=O)O)C(=O)N[C@@H](CCC(=O)O)C(=O)N[C@@H](CCC(N)=O)C(=O)N[C@@H](CCC(N)=O)C(=O)N[C@@H](CCCCN)C(=O)N[C@@H](CCCCN)C(=O)N[C@@H](CC(N)=O)C(=O)N[C@@H](CCC(=O)O)C(=O)N[C@@H](CCC(=O)O)C(=O)N[C@@H](CCC(=O)O)C(=O)N[C@@H](CC(C)C)C(=O)N[C@@H](CCCCN)C(=O)N[C@@H](CCCCN)C(N)=O` (Ac-WEEWDKKIEEYTKKIEELIKKYEEQQKKNEEELKK-NH2), the Activity [1] is reported as 0.5%, the Tm [2] is reported as 68 °C and the Activity [3] is reported as 5.9%. For the same compound, the Activity [4] was 2.3%, the Activity [5] was 0.4% and the EC50 [6] was 1.9 nM.
